The record followed here is paper PMC4145316, “Cytotoxic and Apoptosis-Inducing Activity of Triterpene Glycosides from Holothuria scabra and Cucumaria frondosa against HepG2 Cells” (Marine Drugs, 2014).

The test system of test [1] is human liver (HL-7702) cells. The experiment in a line: MTT cytotoxicity assay, normal HL-7702 cells. It is filed as cell-based. To be noted: for Ratio (HL-7702/HepG2): ratio of IC50 values against HL-7702 and HepG2 cells, selective cytotoxicity. Here is the method:
(§1) Human hepatoma (HepG2), human cervical cancer (HeLa), human leukemia (K562) and human liver (HL-7702) cells were obtained by Shanghai Institute of Biochemistry and Cell Biology, and maintained in the logarithmic phase of growth in RPMI-1640 complete medium supplemented with 2 mM L-glutamine (Sigma Chemical Co., Saint Louis, MO, USA), 100 IU/mL penicillin, 100 μg/mL streptomycin and 10% FCS at 37 °C under humidified air with 5% CO2.
(§2) The effect of compounds 1–13 on the viability of HepG2, HeLa, K562 and HL-7702 cells was determined by MIT assay as described previously. Briefly, the tumor and normal cells were seeded at 1 × 10^4 cells/well in a 96-well microtiter plate and incubated at 37 °C in a humidified atmosphere with 5% CO2. After 24 h, compounds 1–13, the positive drug CDDP or RPMI-1640 medium were added into each well, and the plates were incubated at 37 °C for the indicated time. Each concentration was repeated four wells. 50 μL of MTT solution (2 mg/mL) was added to each well 4 h before incubation end, and incubated further for 4 h. The plates were centrifuged (1400× g, 5 min) and the untransformed MTT was removed carefully by pipetting. To each well, 150 μL of DMSO was added and the absorbance was evaluated in an ELISA reader at 570 nm after 15 min. The inhibitory rates and 50% inhibitory concentrations (IC50) values towards cell viability were calculated by NDST software. Each test was performed in triplicate.
For orientation: Tetrazolium assays rely on reduction of a dye to a coloured formazan, in cell work by metabolically active cells.

For test [2], the system named is human leukemia (K562) cells. The experiment in a line: MTT cytotoxicity assay, K562 cells. It is filed as cell-based. As to conditions: means ± SD (n = 3). Here is the method:
as §1, §2

Test [3] relates to HepG2 cells. As to the kind of experiment: Apoptosis morphology, acridine orange and Hoechst 33342 staining. To be noted: 2.5 and 2.75 μg/mL for 8 h; AO and Hoechst 33342 staining. It counts as cell-based, human. The source says:
The induction of apoptosis in cancer cells has emerged as an exciting possibility for the development of selective cancer therapies. Apoptosis is characterized by distinct morphological features such as cell shrinkage, loss of contact with neighboring cells, formation of cytoplastic vacuoles, chromatin condensation, nuclear-membrane blebbing, oligonucleosomal DNA fragmentation, and finally breakdown of the cell into smaller units (apoptotic bodies). To further characterize the anticancer activity of 1, disorganization of the nucleus with chromatin changes in HepG2 cells treated with 1 at the concentration of 2.5 and 2.75 μg/mL for 8 h was characterized using acridine orange (OA) and Hoechst 33342 staining under fluorescence microscope.
HepG2 cells were seeded at 1 × 10^5 cells/mL into 24-well plates and then incubated at 37 °C in a humidified atmosphere with 5% CO2. After 24 h, the cells were treated with 1 at the final concentrations of 0, 2.5 and 2.75 μg/mL for 8 h. After washed twice with PBS, cells were stained with 100 μL acridine orange (AO) solution (10 μg/mL) or Hoechst 33342 solution (5 μg/mL) for 30 min, and then visualized by fluorescence microscope (Olympus, Tokyo, Japan) with 488 nm stimulation and 500–520 nm emission or 350 nm stimulation and 460 nm emission, respectively.

The test system of test [4] is HepG2 cells. As to the kind of experiment: Mitochondrial transmembrane potential, JC-1 staining. It is filed as cell-based, human. To be noted: 2.5, 2.75 and 3 μg/mL for 6 h. Here is the method: Therefore, we measured the Δψm in 1-treated HepG2 cells and control cells using JC-1 staining, and the results were shown in Figure 4. The aggregated JC-1 within normal mitochondria in HepG2 cells was dispersed to the monomeric form (green fluorescence) after treatment with 1 for 6 h. […] After treatment with 1 at 3 μg/mL, the red fluorescence disappeared and pure green fluorescence only occurred in HepG2 cells.
After treatment with 1 at the concentration of 0, 2.5, 2.75 and 3 μg/mL for 6 h, the cells were harvested, washed twice with PBS, and then incubated with 500 μL of JC-1 staining solution (5 μg/mL) at 37 °C for 30 min [43]. The stained cells were rinsed twice with PBS and resuspended in medium. The Δψm was monitored by determining the relative amounts of dual emissions from mitochondrial JC-1 monomers (green fluorescence) to aggregates (red fluorescence) using an Olympus fluorescent microscope under Argon-ion 488 nm laser excitation.

Test [5] deals with human hepatoma (HepG2) cells. As to the kind of experiment: MTT cytotoxicity assay, HepG2 cells. It counts as cell-based. As to conditions: means ± SD (n = 3). Here is the method: as §1, §2
Test [6] relates to human cervical cancer (HeLa) cells. As to the kind of experiment: MTT cytotoxicity assay, HeLa cells. It counts as cell-based. As to conditions: means ± SD (n = 3). Here is the method: as §1, §2

Turning to `COC1C(O)C(CO)OC(OC2C(O)C(CO)OC(OC3C(C)OC(OC4C(OC5CCC6(C)C7=CC(O)C89C(=O)OC(C)(CCCC(C)C)C8(O)CCC9(C)C7CCC6C5(C)C)OCC(OS(=O)(=O)O)C4O)C(O)C3O)C2O)C1O.[Na+]` (centres unmarked) [Echinoside A (1), Echinoside A], in test [1] (MTT assay, normal hepatocytes, means ± SD (n = 3)), the “IC50 (μg/mL) HL-7702” value came to 3.12 ± 0.65 µg/mL. Moreover, the results for the “Ratio (HL-7702/HepG2)” value in test [1] and in test [1] (listed as 1) were 2.08 and “more than 2”, respectively. Also, the “IC50 (μg/mL) K562” value in test [2] amounted to 1.61 ± 0.11 µg/mL. For the same compound, in the test on HepG2 cells [3], the “apoptosis in HepG2 cells (morphology)” value is on record as “could induce apoptosis”. The “mitochondrial transmembrane potential (Δψm)” value with HepG2 cells [4] was “significantly decreased”. Further, in test [5], the “IC50 (μg/mL) HepG2” value was determined as 1.50 ± 0.08 µg/mL. Also, the “IC50 (μg/mL) HeLa” value in test [6] was 1.25 ± 0.16 µg/mL.
